Measured values taken from patent US20040067965A1, “Antiviral method of use” (priority 2001, published 2004).

How the values were obtained:
HCMV strain AD169 = assay: HCMV plaque reduction (inhibition of virus replication in cell culture); type: cell-based, human cytomegalovirus; settings: for IC50: Human betaherpesvirus 5, MRC5, HCMV strain AD169, plaque formation, MRC-5 cells, read-out: IC50 = 50% Inhibitory Concentration of HCMV strain AD169 induced plaque formation in MRC-5 Cells
Description: All materials required for this testing are commercially available. The testing method described is well documented in the literature, see, e.g. Colacino, J M and Lopez C., 1983, “Efficacy and selectivity of some nucleoside analogs as anti-human cytomegalovirus agents.” Antimicrob. Agents Chemother. 24:505-508; Colacino, J M and Lopez C., 1985, “Antiviral activity of 2′-deoxy-2′-fluoro-beta-D-arabinofuranosyl-5-iodocytosine against human cytomegalovirus in human skin fibroblasts.” Antimicrob. Agents Chemother. 28:252-258; and Mauldin, S C, Paget C J Jr., Jones C D, Colacino J M, Baxter A J, Staschke K A, Johansson N G, and Vrang L., 1998, “Synthesis and antiviral activity of prodrugs of the nucleoside 1-[2′,3′-dideoxy-3′-C-(hydroxymethyl)-beta-D-erythropentofuranosyl] cytosine.” Bioorg. Med Chem. 6:577-585.
Human fibroblast cells, foreskin or fetal lung cells, are infected with human cytomegalovirus. The cells are incubated with standard cell culture media containing no or increasing concentrations of ALIMTA. […] Additionally the yield of virus produced in the non-treated infected cell control cultures is compared to the yield of virus produced in the treated infected cell cultures.
The percent inhibition of virus replication can be determined and the concentration of molecule required to inhibit viral replication by 50% (IC50) and 90% (IC90) can be calculated using linear regression analysis.

in vitro = type: cell-based; settings: human

SMILES	IC50 (HCMV strain AD169) [µM]	CC50 (in vitro) [µM]	Comments (HCMV screening summary) (HCMV strain AD169; HCMV strain AD169 in MRC-5 cells)	TI (Therapeutic Index) = TC50/IC50 (HCMV strain AD169; TC50 (MRC-5) / IC50 (HCMV AD169 plaque formation), called selective index in text)
Nc1nc(O)c2ncn(COC(CO)CO)c2n1 [Ganciclovir]	6.37	> 100		
Nc1nc2[nH]cc(CCc3ccc(C(=O)N[C@@H](CCC(=O)[O-])C(=O)[O-])cc3)c2c(=O)[nH]1.[Na+].[Na+] [ALIMTA, disodium N-[4-[2-(2-amino-4,7-dihydro-4-oxo-3H-pyrrolo[2,3-d]-pyrimidin-5-yl)ethyl]benzoyl]-L-glutamic acid salt]	0.29	> 100	High activity	>344.8
